# Data from patent publication US8703768B2, “Nitrogen containing heteroaryl compounds” (Hoffmann-La Roche Inc., priority 2010, dated 2014).
# Target: human PDE10A (Homo sapiens (Human), UniProt Q9Y233)
# Assay: human PDE10A full length Scintillation Proximity Assay (SPA)
# Format: biochemical
# Settings: 50 nM cGMP and 50 nM [3H]-cGMP, 20 minutes at room temperature; read-out: PDE10A inhibition IC50
# Summary of the method: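 Full-length enzyme incubated with compounds; reaction started with cGMP plus [^3H]-cGMP substrate and run 20 min at room temperature. Stopped with yttrium silicate SPA beads in 18 mM zinc sulphate, 1 h shaking, then scintillation counting; background from enzyme-free wells.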
# Chain of human PDE10A (Q9Y233 other isoform, or with tags, fused parts or gaps): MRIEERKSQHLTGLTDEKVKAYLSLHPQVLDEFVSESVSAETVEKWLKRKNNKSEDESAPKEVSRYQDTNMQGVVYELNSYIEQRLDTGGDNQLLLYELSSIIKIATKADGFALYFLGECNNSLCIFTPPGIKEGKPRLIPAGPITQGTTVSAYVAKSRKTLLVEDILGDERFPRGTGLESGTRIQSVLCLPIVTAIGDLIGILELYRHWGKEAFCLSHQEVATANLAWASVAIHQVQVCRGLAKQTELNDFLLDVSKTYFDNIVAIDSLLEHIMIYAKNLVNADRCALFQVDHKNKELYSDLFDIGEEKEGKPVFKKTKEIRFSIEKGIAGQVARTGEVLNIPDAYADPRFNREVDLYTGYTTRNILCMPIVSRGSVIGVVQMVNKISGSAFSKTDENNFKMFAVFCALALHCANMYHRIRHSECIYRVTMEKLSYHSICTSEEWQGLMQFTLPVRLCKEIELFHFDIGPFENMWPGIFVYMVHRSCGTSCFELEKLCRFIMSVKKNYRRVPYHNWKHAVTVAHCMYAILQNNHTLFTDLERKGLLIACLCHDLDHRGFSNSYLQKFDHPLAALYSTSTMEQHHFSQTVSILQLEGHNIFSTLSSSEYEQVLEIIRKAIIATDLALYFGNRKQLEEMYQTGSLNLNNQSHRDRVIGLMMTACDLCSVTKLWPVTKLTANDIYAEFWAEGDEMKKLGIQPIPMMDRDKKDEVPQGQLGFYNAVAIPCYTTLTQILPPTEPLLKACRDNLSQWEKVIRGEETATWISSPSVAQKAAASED
row,Compound,IC50 [nM]
1,"COc1cccc(NC(=O)c2nc(C3CC3)cnc2Nc2cncnc2)c1C(=O)N(C)C [Example 206, 6-Cyclopropyl-3-(pyrimidin-5-ylamino)-pyrazine-2-carboxylic acid (2-dimethylcarbamoyl-3-methoxy-phenyl)-amide]",12.2
2,"CC(C)c1ccc(NC(=O)c2nc(C3CC3)cnc2Nc2cncnc2)c(C(=O)NCC(C)(C)O)c1 [Example 207, 6-Cyclopropyl-3-(pyrimidin-5-ylamino)-pyrazine-2-carboxylic acid [2-(2-hydroxy-2-methyl-propylcarbamoyl)-4-isopropyl-phenyl]-amide]",1.1
3,"CNC(=O)c1cc(C(C)C)ccc1NC(=O)c1nc(C2CC2)cnc1Nc1cncnc1 [Example 208, 6-Cyclopropyl-3-(pyrimidin-5-ylamino)-pyrazine-2-carboxylic acid (4-isopropyl-2-methylcarbamoyl-phenyl)-amide]",1.3
4,"CNC(=O)c1nc(COC)ccc1NC(=O)c1nc(C2CC2)cnc1Nc1cncnc1 [Example 209, 6-Cyclopropyl-3-(pyrimidin-5-ylamino)-pyrazine-2-carboxylic acid (6-methoxymethyl-2-methylcarbamoyl-pyridin-3-yl)-amide]",3.7
5,"O=C(Nc1cncnc1C(=O)N1CCC1)c1nc(C2CC2)cnc1Nc1cncnc1 [Example 211, 6-Cyclopropyl-3-(pyrimidin-5-ylamino)-pyrazine-2-carboxylic acid [4-(azetidine-1-carbonyl)-pyrimidin-5-yl]-amide]",2650
6,"O=C(Nc1cncnc1C(=O)N1CCCCC1)c1nc(C2CC2)cnc1Nc1cncnc1 [Example 212, 6-Cyclopropyl-3-(pyrimidin-5-ylamino)-pyrazine-2-carboxylic acid [4-(piperidine-1-carbonyl)-pyrimidin-5-yl]-amide]",81.2
7,"CNC(=O)c1cc(OCCOC)ccc1NC(=O)c1nc(C2CC2)cnc1Nc1cncnc1 [Example 214, 6-Cyclopropyl-3-(pyrimidin-5-ylamino)-pyrazine-2-carboxylic acid [4-(2-methoxy-ethoxy)-2-methylcarbamoyl-phenyl]-amide]",1
8,"CC(C)(O)CNC(=O)c1cc(OCCO)ccc1NC(=O)c1nc(C2CC2)cnc1Nc1cncnc1 [Example 215, 6-Cyclopropyl-3-(pyrimidin-5-ylamino)-pyrazine-2-carboxylic acid [4-(2-hydroxy-ethoxy)-2-(2-hydroxy-2-methyl-propylcarbamoyl)-phenyl]-amide]",0.5
9,"CNC(=O)c1cc(OCCO)ccc1NC(=O)c1nc(C2CC2)cnc1Nc1cncnc1 [Example 216, 6-Cyclopropyl-3-(pyrimidin-5-ylamino)-pyrazine-2-carboxylic acid [4-(2-hydroxy-ethoxy)-2-methylcarbamoyl-phenyl]-amide]",0.8
10,"CNC(=O)c1ncncc1NC(=O)c1nc(C2CC2)cnc1Nc1cncnc1 [Example 218, 5-{[6-Cyclopropyl-3-(pyrimidin-5-ylamino)-pyrazine-2-carbonyl]-amino}-pyrimidine-4-carboxylic acid methylamide]",5.2
11,"O=C(Nc1cncnc1C(=O)N1CCCC1)c1nc(C2CC2)cnc1Nc1cncnc1 [Example 219, 6-Cyclopropyl-3-(pyrimidin-5-ylamino)-pyrazine-2-carboxylic acid [4-(pyrrolidine-1-carbonyl)-pyrimidin-5-yl]-amide]",52.3
12,"CCNC(=O)c1ncccc1NC(=O)c1nc(C2CC2)cnc1Nc1cncnc1 [Example 220, 6-Cyclopropyl-3-(pyrimidin-5-ylamino)-pyrazine-2-carboxylic acid (2-ethylcarbamoyl-pyridin-3-yl)-amide]",2.3
13,"CC(C)NC(=O)c1ncccc1NC(=O)c1nc(C2CC2)cnc1Nc1cncnc1 [Example 221, 6-Cyclopropyl-3-(pyrimidin-5-ylamino)-pyrazine-2-carboxylic acid (2-isopropylcarbamoyl-pyridin-3-yl)-amide]",4.9
14,"CCCN(CCC)C(=O)c1c(NC(=O)c2nc(C3CC3)cnc2Nc2cncnc2)cnn1C [Example 222, 6-Cyclopropyl-3-(pyrimidin-5-ylamino)-pyrazine-2-carboxylic acid (5-dipropylcarbamoyl-1-methyl-1H-pyrazol-4-yl)-amide]",42.5
15,"CCCCN(C)C(=O)c1c(NC(=O)c2nc(C3CC3)cnc2Nc2cncnc2)cnn1C [Example 223, 6-Cyclopropyl-3-(pyrimidin-5-ylamino)-pyrazine-2-carboxylic acid [5-(butyl-methyl-carbamoyl)-1-methyl-1H-pyrazol-4-yl]-amide]",18.4

# Results, then the compound that gave them:
row,IC50 [nM],Compound
1,18.1,"CNC(=O)c1c(C)cccc1NC(=O)c1nc(C2CC2)cnc1Nc1cncnc1 [Example 224, 6-Cyclopropyl-3-(pyrimidin-5-ylamino)-pyrazine-2-carboxylic acid (3-methyl-2-methylcarbamoyl-phenyl)-amide]"
2,0.5,"CNC(=O)c1cc(OC)ccc1NC(=O)c1nc(C2CC2)cnc1Nc1cncnc1 [Example 225, 6-Cyclopropyl-3-(pyrimidin-5-ylamino)-pyrazine-2-carboxylic acid (4-methoxy-2-methylcarbamoyl-phenyl)-amide]"
3,54.3,"CN(CCO)C(=O)c1c(NC(=O)c2nc(C3CC3)cnc2Nc2cncnc2)cnn1C [Example 226, 6-Cyclopropyl-3-(pyrimidin-5-ylamino)-pyrazine-2-carboxylic acid [5-[(2-hydroxy-ethyl)-methyl-carbamoyl]-1-methyl-1H-pyrazol-4-yl]-amide]"
4,64.1,"CC(C)N(C)C(=O)c1c(NC(=O)c2nc(C3CC3)cnc2Nc2cncnc2)cnn1C [Example 227, 6-Cyclopropyl-3-(pyrimidin-5-ylamino)-pyrazine-2-carboxylic acid [5-(isopropyl-methyl-carbamoyl)-1-methyl-1H-pyrazol-4-yl]-amide]"
5,38,"CCN(CC)C(=O)c1c(NC(=O)c2nc(C3CC3)cnc2Nc2cncnc2)cnn1C [Example 228, 6-Cyclopropyl-3-(pyrimidin-5-ylamino)-pyrazine-2-carboxylic acid (5-diethylcarbamoyl-1-methyl-1H-pyrazol-4-yl)-amide]"
6,12.6,"CCCN(C)C(=O)c1c(NC(=O)c2nc(C3CC3)cnc2Nc2cncnc2)cnn1C [Example 229, 6-Cyclopropyl-3-(pyrimidin-5-ylamino)-pyrazine-2-carboxylic acid [1-methyl-5-(methyl-propyl-carbamoyl)-1H-pyrazol-4-yl]-amide]"
7,118,"CCN(CCO)C(=O)c1c(NC(=O)c2nc(C3CC3)cnc2Nc2cncnc2)cnn1C [Example 230, 6-Cyclopropyl-3-(pyrimidin-5-ylamino)-pyrazine-2-carboxylic acid {5-[ethyl-(2-hydroxy-ethyl)-carbamoyl]-1-methyl-1H-pyrazol-4-yl}-amide]"
8,41.7,"CN(C(=O)c1c(NC(=O)c2nc(C3CC3)cnc2Nc2cncnc2)cnn1C)C1CCOCC1 [Example 231, 6-Cyclopropyl-3-(pyrimidin-5-ylamino)-pyrazine-2-carboxylic acid {1-methyl-5-[methyl-(tetrahydro-pyran-4-yl)-carbamoyl]-1H-pyrazol-4-yl}-amide]"
9,4,"Cn1ncc(NC(=O)c2nc(C3CC3)cnc2Nc2cncnc2)c1C(=O)NCC1CCCO1 (centres unmarked) [Example 232, 6-Cyclopropyl-3-(pyrimidin-5-ylamino)-pyrazine-2-carboxylic acid {1-methyl-5-[(tetrahydro-furan-2-ylmethyl)-carbamoyl]-1H-pyrazol-4-yl}-amide]"
10,24.9,"CCn1ncc(NC(=O)c2nc(C3CC3)cnc2Nc2cncnc2)c1C(=O)NCC1CCCO1 (centres unmarked) [Example 233, 6-Cyclopropyl-3-(pyrimidin-5-ylamino)-pyrazine-2-carboxylic acid {1-ethyl-5-[(tetrahydro-furan-2-ylmethyl)-carbamoyl]-1H-pyrazol-4-yl}-amide]"
11,77.3,"Cn1ncc(NC(=O)c2nc(C3CC3)cnc2Nc2cccnc2)c1C(=O)N1CCC1 [Example 234, 6-Cyclopropyl-3-(pyridin-3-ylamino)-pyrazine-2-carboxylic acid [5-(azetidine-1-carbonyl)-1-methyl-1H-pyrazol-4-yl]-amide]"
12,34,"CC1CCCCN1C(=O)c1c(NC(=O)c2nc(C3CC3)cnc2Nc2cncnc2)cnn1C (centres unmarked) [Example 235, 6-Cyclopropyl-3-(pyrimidin-5-ylamino)-pyrazine-2-carboxylic acid [1-methyl-5-(2-methyl-piperidine-1-carbonyl)-1H-pyrazol-4-yl]-amide]"
13,6.8,"Cn1ncc(NC(=O)c2nc(C3CC3)cnc2Nc2cncnc2)c1C(=O)NC1CCN(C(=O)OC(C)(C)C)C1 (centres unmarked) [Example 236, 3-[(4-{[6-Cyclopropyl-3-(pyrimidin-5-ylamino)-pyrazine-2-carbonyl]-amino}-2-methyl-2H-pyrazole-3-carbonyl)-amino]-pyrrolidine-1-carboxylic acid tert-butyl ester]"
14,93.4,"CN(CC(F)(F)F)C(=O)c1c(NC(=O)c2nc(C3CC3)cnc2Nc2cncnc2)cnn1C [Example 237, 6-Cyclopropyl-3-(pyrimidin-5-ylamino)-pyrazine-2-carboxylic acid {1-methyl-5-[methyl-(2,2,2-trifluoro-ethyl)-carbamoyl]-1H-pyrazol-4-yl}-amide]"
15,52.3,"CN(C(=O)c1c(NC(=O)c2nc(C3CC3)cnc2Nc2cncnc2)cnn1C)C1CC1 [Example 238, 6-Cyclopropyl-3-(pyrimidin-5-ylamino)-pyrazine-2-carboxylic acid [5-(cyclopropyl-methyl-carbamoyl)-1-methyl-1H-pyrazol-4-yl]-amide]"
16,47.7,"CC1CCCN1C(=O)c1c(NC(=O)c2nc(C3CC3)cnc2Nc2cncnc2)cnn1C (centres unmarked) [Example 239, 6-Cyclopropyl-3-(pyrimidin-5-ylamino)-pyrazine-2-carboxylic acid [1-methyl-5-(2-methyl-pyrrolidine-1-carbonyl)-1H-pyrazol-4-yl]-amide]"
17,191,"CN(C(=O)c1c(NC(=O)c2nc(C3CC3)cnc2Nc2cncnc2)cnn1C)C1COC1 [Example 240, 6-Cyclopropyl-3-(pyrimidin-5-ylamino)-pyrazine-2-carboxylic acid [1-methyl-5-(methyl-oxetan-3-yl-carbamoyl)-1H-pyrazol-4-yl]-amide]"
